Assay results as given in the supplement of paper PMC10307832.

compound: O=c1ncccn1[C@@H]1O[C@H](CO)[C@@H](O)[C@H]1O [Zebularine] + Cc1nc(Nc2ncc(C(=O)Nc3c(C)cccc3Cl)s2)cc(N2CCN(CCO)CC2)n1 [Dasatinib] (partner 0.075 µM); experiment: relative viability (nuclei count vs DMSO), 5 days (fraction); higher = more cells survive; conditions: first compound 1 µM
Method in brief: (§1)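 Relative viability was taken as the ratio of nuclei in treated wells to nuclei in vehicle wells. Lung cancer cell lines in 1536-well plates received compounds by pin tool one day after seeding, either one drug alone or a fixed anchor-drug dose plus five library-drug doses (not always all listed) in √10 steps. Nuclei were counted on 4× images after 5 days of treatment, and values are medians of duplicate plates.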

Going from NCI-H1666 to NCI-H596, the relative viability falls from 0.828 to 0.606.

Going from LK-2 to NCI-H2087, the relative viability rises from 0.242 to 1.14.

Going from SK-MES-1 to H3255, the relative viability rises from 0.386 to 0.402.

Compared with COR-L23, COR-L 105 is lower in relative viability: 0.616 for the first, 0.33 for the second.

Going from LOU-NH91 to ChaGo-K-1, the relative viability rises from 0.569 to 0.619.

Going from NCI-H2170 to NCI-H2405, the relative viability falls from 0.658 to 0.229.

Going from NCI-H522 to SW 900, the relative viability falls from 0.859 to 0.647.

Going from NCI-H1395 to NCI-H1792, the relative viability rises from 0.443 to 0.71.

Going from NCI-H1793 to NCI-H1563, the relative viability rises from 0.479 to 0.498.

Going from NCI-H1944 to ABC-1, the relative viability rises from 0.202 to 0.637.

Cell Line NCI-H358 has a relative viability of 0.169.

same assay, conditions: first compound 3.162 µM

Going from NCI-H2342 to NCI-H1623, the relative viability rises from 0.337 to 0.47.

Compared with NCI-H1650, NCI-H1993 is higher in relative viability: 0.366 for the first, 0.609 for the second.

First: SW 1573
Second: NCI-H838
The relative viability of the first is higher: 0.523 for the first, 0.238 for the second.

First: LCLC-103H
Second: NCI-H520
The relative viability of the first is higher: 0.479 for the first, 0.175 for the second.

Compared with NCI-H2126, EMC-BAC-2 is lower in relative viability: 0.538 for the first, 0.367 for the second.

Going from NCI-H2085 to HCC-366, the relative viability rises from 0.226 to 0.667.

Compared with NCI-H1666, NCI-H596 is lower in relative viability: 0.817 for the first, 0.648 for the second.

Compared with LK-2, NCI-H2087 is higher in relative viability: 0.336 for the first, 0.786 for the second.

Going from SK-MES-1 to H3255, the relative viability falls from 0.423 to 0.365.

First: COR-L23
Second: COR-L 105
The relative viability of the first is higher: 0.442 for the first, 0.294 for the second.

Going from LOU-NH91 to ChaGo-K-1, the relative viability falls from 0.595 to 0.557.

Going from NCI-H2170 to NCI-H2405, the relative viability falls from 0.572 to 0.213.

First: NCI-H522
Second: SW 900
The relative viability of the first is higher: 0.886 for the first, 0.498 for the second.

First: NCI-H1395
Second: NCI-H1792
The relative viability of the first is lower: 0.37 for the first, 0.713 for the second.

Going from NCI-H1793 to NCI-H1563, the relative viability rises from 0.373 to 0.528.

First: NCI-H1944
Second: ABC-1
The relative viability of the first is lower: 0.199 for the first, 0.352 for the second.

NCI-H358 was tested, and the relative viability was 0.134.

same assay, conditions: first compound 10 µM

Compared with NCI-H2342, NCI-H1623 is higher in relative viability: 0.268 for the first, 0.459 for the second.

Compared with NCI-H1650, NCI-H1993 is higher in relative viability: 0.324 for the first, 0.48 for the second.

First: NCI-H838
Second: LCLC-103H
The relative viability of the first is lower: 0.239 for the first, 0.251 for the second.

First: NCI-H520
Second: NCI-H2126
The relative viability of the first is lower: 0.14 for the first, 0.612 for the second.

First: EMC-BAC-2
Second: NCI-H2085
The relative viability of the first is higher: 0.268 for the first, 0.243 for the second.

Going from HCC-366 to NCI-H1666, the relative viability rises from 0.526 to 0.714.

Compared with NCI-H596, LK-2 is lower in relative viability: 0.461 for the first, 0.287 for the second.

Compared with NCI-H2087, SK-MES-1 is lower in relative viability: 0.426 for the first, 0.356 for the second.

Compared with H3255, COR-L23 is higher in relative viability: 0.324 for the first, 0.373 for the second.

First: COR-L 105
Second: LOU-NH91
The relative viability of the first is lower: 0.33 for the first, 0.553 for the second.

First: ChaGo-K-1
Second: NCI-H2170
The relative viability of the first is lower: 0.312 for the first, 0.364 for the second.

First: NCI-H2405
Second: NCI-H522
The relative viability of the first is lower: 0.207 for the first, 0.473 for the second.

Going from SW 900 to NCI-H1395, the relative viability rises from 0.328 to 0.408.

Compared with NCI-H1792, NCI-H1563 is higher in relative viability: 0.262 for the first, 0.527 for the second.

Compared with NCI-H1944, ABC-1 is higher in relative viability: 0.221 for the first, 0.454 for the second.

With NCI-H358 the relative viability was 0.194.

same assay, conditions: first compound 31.62 µM

First: NCI-H2342
Second: NCI-H1623
The relative viability of the first is lower: 0.334 for the first, 0.53 for the second.

Going from NCI-H727 to NCI-H1650, the relative viability falls from 0.349 to 0.342.

Going from NCI-H1993 to SW 1573, the relative viability rises from 0.498 to 0.548.

First: NCI-H838
Second: LCLC-103H
The relative viability of the first is lower: 0.268 for the first, 0.475 for the second.

Compared with NCI-H520, NCI-H2126 is higher in relative viability: 0.172 for the first, 0.569 for the second.

Compared with EMC-BAC-2, NCI-H2085 is lower in relative viability: 0.318 for the first, 0.222 for the second.

First: HCC-366
Second: NCI-H1666
The relative viability of the first is lower: 0.721 for the first, 0.993 for the second.

Going from NCI-H596 to LK-2, the relative viability falls from 0.694 to 0.256.

Compared with NCI-H2087, SK-MES-1 is lower in relative viability: 0.972 for the first, 0.299 for the second.

Going from H3255 to COR-L23, the relative viability falls from 0.409 to 0.239.

First: COR-L 105
Second: LOU-NH91
The relative viability of the first is lower: 0.367 for the first, 0.571 for the second.

First: ChaGo-K-1
Second: NCI-H2170
The relative viability of the first is lower: 0.269 for the first, 0.559 for the second.

First: NCI-H2405
Second: NCI-H522
The relative viability of the first is lower: 0.188 for the first, 0.933 for the second.

Compared with SW 900, NCI-H1395 is lower in relative viability: 0.926 for the first, 0.341 for the second.

Compared with NCI-H1792, NCI-H1793 is lower in relative viability: 0.421 for the first, 0.25 for the second.

Going from NCI-H1563 to NCI-H1944, the relative viability falls from 0.406 to 0.215.

Going from ABC-1 to NCI-H358, the relative viability falls from 0.435 to 0.174.

same assay, conditions: first compound 100 µM

Going from NCI-H2342 to NCI-H1623, the relative viability rises from 0.341 to 0.386.

Compared with NCI-H727, NCI-H1650 is lower in relative viability: 0.356 for the first, 0.312 for the second.

First: NCI-H1993
Second: SW 1573
The relative viability of the first is higher: 0.496 for the first, 0.475 for the second.

First: NCI-H838
Second: LCLC-103H
The relative viability of the first is lower: 0.278 for the first, 0.44 for the second.

Compared with NCI-H520, NCI-H2126 is higher in relative viability: 0.164 for the first, 0.488 for the second.

Compared with EMC-BAC-2, NCI-H2085 is lower in relative viability: 0.311 for the first, 0.246 for the second.

Compared with HCC-366, NCI-H1666 is higher in relative viability: 0.218 for the first, 0.689 for the second.

Compared with NCI-H596, LK-2 is lower in relative viability: 0.565 for the first, 0.228 for the second.

First: NCI-H2087
Second: SK-MES-1
The relative viability of the first is higher: 0.631 for the first, 0.166 for the second.

First: H3255
Second: COR-L23
The relative viability of the first is higher: 0.368 for the first, 0.211 for the second.

Going from COR-L 105 to LOU-NH91, the relative viability rises from 0.369 to 0.473.

First: ChaGo-K-1
Second: NCI-H2170
The relative viability of the first is lower: 0.183 for the first, 0.278 for the second.

Compared with NCI-H2405, NCI-H522 is higher in relative viability: 0.211 for the first, 0.938 for the second.

First: SW 900
Second: NCI-H1395
The relative viability of the first is higher: 0.484 for the first, 0.36 for the second.

Going from NCI-H1792 to NCI-H1793, the relative viability falls from 0.414 to 0.176.

Going from NCI-H1563 to NCI-H1944, the relative viability falls from 0.466 to 0.193.

First: ABC-1
Second: NCI-H358
The relative viability of the first is higher: 0.351 for the first, 0.105 for the second.

compound: O=c1ncccn1[C@@H]1O[C@H](CO)[C@@H](O)[C@H]1O [Zebularine] + O=C(CCCCCCC(=O)Nc1ccccc1)NO [Vorinostat] (partner 1 µM); experiment: as above; conditions: first compound 1 µM
Method in brief: as §1

Going from NCI-H2342 to NCI-H727, the relative viability rises from 0.863 to 1.18.

Compared with NCI-H1650, NCI-H1993 is higher in relative viability: 0.645 for the first, 0.73 for the second.

Compared with SW 1573, NCI-H838 is lower in relative viability: 0.964 for the first, 0.712 for the second.

LCLC-103H was tested, and the relative viability was 0.812.
